Laboratory results: publication PMC9821843, “Powerful Potential of Polyfluoroalkyl-Containing 4-Arylhydrazinylidenepyrazol-3-ones for Pharmaceuticals” (Molecules, 2022)
Values after ≈ are worked out from the molar mass of the structure shown. Read-outs that look alike come from different tables or passages of the source.

Experiments:
[1] = tested on: Microsporum canis RCPF F 1643/1585; experiment: Antifungal susceptibility testing, M. canis; settings: Microsporum canis, RCPFF1643/1585, read-out: MIC for fungi strains inhibition, M. canis
Description: (§2) The solvent was DMSO. […] In each test, a growth control and a sterility control were used.

[2] = target: T1, human erythrocyte acetylcholinesterase (AChE, EC 3.1.1.7) (Homo sapiens, UniProt P22303); experiment: Inhibition of human erythrocyte acetylcholinesterase (Ellman assay); format: biochemical; settings: read-out: Inhibition % at 20 µM, Human AChE
T1 construct: human erythrocyte acetylcholinesterase (AChE, EC 3.1.1.7); purchased Sigma-Aldrich (Saint Louis, MO, USA); host or cells: human erythrocytes
Description: (§1) The following enzymes were purchased from Sigma-Aldrich (Saint Louis, MO, USA): porcine liver carboxylesterase (CES, EC 3.1.1.1), human erythrocyte acetylcholinesterase (AChE, EC 3.1.1.7) and equine serum butyrylcholinesterase (BChE, EC 3.1.1.8). Substrates for CES, AChE and BChE were 4-nitrophenyl acetate (4-NPA), acetylthiocholine iodide (ATCh) and butyrylthiocholine iodide (BTCh), respectively, and the colorimetric reagent for the AChE and BChE assays was 5,5’-dithio-bis-(2-nitrobenzoic acid) (DTNB) (Sigma-Aldrich). All the kinetic experiments were performed under standard conditions, according to the protocol of IPAC RAS for a reversible inhibitors study.
Reagent blanks consisted of reaction mixtures without enzyme to assess non-enzymatic hydrolysis of substrates.
Test compounds were dissolved in DMSO. Reaction mixtures contained a final DMSO concentration of 2% (v/v). […] Measurements were performed in a Bio-Rad Benchmark Plus microplate reader. Each experiment was performed in triplicate. Plots, linear regressions and values of IC50, were determined using Origin 6.1 for Windows, OriginLab (Northampton, MA, USA).

Sprague-Dawley (SD) rats = experiment: Hot plate test (analgesic activity); format: in vivo; settings: ip, dose 15 mg/kg; for change in vivo at 15 mg/kg: Rattus norvegicus, hot plate test, rats, n.a. = inactive (p > 0.05)
Procedure: The hot plate test was conducted according to established guidelines on Sprague-Dawley (SD) rats (3 male and 3 female rodents per group). The compounds were intraperitoneally administered in the form of suspensions in 1% starch mucilage. Negative control group animals received vehicle only (1% starch mucilage). Diclofenac sodium (Hemofarm, Vršac, Serbia, 10 mg/kg in 1% starch mucilage solution) or metamizole sodium (PAO Biosynthesis, Sun Pharma, Penza, Russia, 15 mg/kg in 1% starch mucilage solution) were used as reference drugs. One and two hours after the injection, rats were placed on an electrically heated to 50 °C plate (Hot plate 60,200 series, TSE-systems, Bad Homburg, Germany) in a Plexiglas cylindrical restrainer (19 cm diameter × 30 cm). The nociceptive response time was measured by observing the appearance of rats’ movements (e.g., jumping, hind paw licking or shaking). Maximal cutoff time was set as 30 s regardless of the response in order to preclude skin damage.
Differences between the values of the latency period for the treated (experimental) and control groups of animals were considered significant at p ≤ 0.05.

[3] = tested on: Candida albicans RCPF Y 401/NCTC 885/653; experiment: Antifungal susceptibility testing, C. albicans; settings: NCTC885, read-out: MIC for fungi strains inhibition, C. albicans
Description: as §2

[4] = tested on: Neisseria gonorrhoeae ATCC 49226/NCTC 12700; experiment: Antibacterial activity against Neisseria gonorrhoeae; format: cell-based; settings: read-out: MIC against Neisseria gonorrhoeae
Procedure: Antibacterial activity testing was done on the growth medium Difco GC medium base (Becton Dickinson, Franklin Lakes, NJ, USA) supplemented with 1% IsoVitaleX. Dilutions of chemical compounds were carried out in the range of 250–0.12 μg/mL in 24 well sterile plates (Sarstedt, Germany). Daily cultures of control bacterial strains were identified on a VITEK MS analyzer (BioMérieux, Marcy-l’Étoile, France) by MALDI-TOF mass spectrometry. The inoculation dose of N. gonorrhoeae inoculum was 10^5 CFU/mL.

[5] = tested on: Trichophyton rubrum RCPF F 1408; experiment: Antifungal susceptibility testing, T. rubrum; settings: Trichophyton rubrum, RCPFF1408, read-out: MIC for fungi strains inhibition, T. rubrum
Description: as §2

[6] = target: T2, equine serum butyrylcholinesterase (BChE, EC 3.1.1.8) (Equus caballus, UniProt P81908); experiment: Inhibition of equine serum butyrylcholinesterase (Ellman assay); format: biochemical; settings: read-out: Inhibition % at 20 µM, Equine BChE
T2 construct: equine serum butyrylcholinesterase (BChE, EC 3.1.1.8); purchased Sigma-Aldrich (Saint Louis, MO, USA); host or cells: equine serum
Description: as §1
Final concentrations of reactants were 0.33 mM DTNB, 0.02 unit/mL of AChE or BChE and 1 mM of substrate (ATCh or BTCh, respectively). Reagent blanks consisted of reaction mixtures without enzyme to assess non-enzymatic hydrolysis of substrates.
Test compounds were dissolved in DMSO. Reaction mixtures contained a final DMSO concentration of 2% (v/v). […] Substrate was then added and residual enzyme activity relative to an inhibitor-free control was measured using a Bio-Rad Benchmark Plus microplate reader (Marnes-la-Coquette, France).
Measurements were performed in a Bio-Rad Benchmark Plus microplate reader. Each experiment was performed in triplicate. Plots, linear regressions and values of IC50, were determined using Origin 6.1 for Windows, OriginLab (Northampton, MA, USA).

[7] = tested on: Epidermophyton floccosum RCPF F 1659/17; experiment: Antifungal susceptibility testing, E. floccosum; settings: Epidermophyton floccosum, RCPFF1659/17, read-out: MIC for fungi strains inhibition, E. floccosum
Description: as §2

[8] = Acute toxicity evaluation in mice (ip); settings: CD-1, mouse, in vivo, 300 mg/kg
Procedure: The toxicity evaluation was performed on CD-1 mice. […] The tested compounds in 1% starch mucilage were injected intraperitoneally into three mice. Then, animals were observed during 14 days, the number of deaths was counted and % of viability calculated.

[9] = ABTS radical cation scavenging activity assay; set-up: key to ABTS•+-scavenging activity, TEAC (trolox equivalent antioxidant capacity): TEAC = ratio of compound slope to Trolox slope vs ABTS absorbance; settings: mean ± SEM; for ABTS•+-scavenging activity, TEAC (trolox equivalent antioxidant capacity): n.a. = inactive
Procedure: Radical scavenging activity of the compounds was evaluated by the ABTS radical cation (ABTS^•+) scavenging assay by the ability of the compounds to decolorize the ABTS^•+ solution [112] with some modifications. Trolox was used as a reference standard. Edaravone was used as the comparison compound. All tested compounds and standards were dissolved in DMSO. ABTS (2,2′-azinobis-(3-ethylbenzothiazoline-6-sulfonic acid)) was purchased from Tokyo Chemical Industry Co. Ltd. (Tokyo, Japan). Potassium persulfate (di-potassium peroxdisulfate), Trolox® (6-hydroxy-2,5,7,8-tetramethychroman-2-carboxylic acid), ascorbic acid, DMSO and HPLC-grade ethanol were obtained from Sigma-Aldrich Chemical Co. Aqueous solutions were prepared using deionized water.
The solution of ABTS^•+ was produced by mixing 7 mM ABTS aqueous solution with 2.45 mM potassium persulfate aqueous solution in equal quantities and allowing them to react for 12–16 h at room temperature in the dark. Radical scavenging capacity of the compounds was analyzed by mixing 10 μL of compound with 240 μL of ABTS^•+ working solution in ethanol (100 μM final concentration), and after 1 h of incubation at 30 °C the decrease in absorbance was measured spectrophotometrically at 734 nm using a Bio-Rad xMark microplate UV/VIS spectrophotometer (Bio-Rad, Hercules, CA, USA). The compounds were tested in the concentration range of 5 × 10^–7–4 × 10^–4 M. Ethanol blanks were run in each assay. Values were obtained from five replicates of each sample and three independent experiments.
Antioxidant activity was calculated as Trolox equivalent antioxidant capacity (TEAC values), consisting of the ratio between the slopes obtained from the linear correlation for concentrations of the tested compounds and Trolox with absorbance of ABTS radical. For the test compounds, which reduce ABTS^•+ absorbance by more than 60% at 100 µM, we also determined IC50 values as 50% reduction of the ABTS radical. The calculations were carried out using Origin 6.1 for Windows. Results were presented as mean ± SEM, calculated using GraphPad Prism version 6.05 for Windows, GraphPad Software.

[10] = Oxygen radical absorbance capacity (ORAC-FL) assay; settings: n.a. = inactive; i.t.s. = interferes with test system
Description: We evaluated the primary antioxidant activity of synthesized 4-AHPs 5–9 in comparison with their non-fluorinated analogues 9a,b using three standard tests: ABTS, FRAP (ferric reducing antioxidant power) and ORAC (oxygen radical absorbance capacity) assays. The ABTS assay evaluates the binding of a model ABTS radical cation (ABTS^•+), which is realized by the mechanism of single electron transfer (SET) and/or hydrogen atom transfer (HAT). The FRAP assay measures the ability of compounds to reduce the ferric 2,4,6-tripyridyl-s-triazine complex [Fe(TPTZ)2]^3+ to [Fe(TPTZ)2]^2+, which occurs exclusively by the SET mechanism. The ORAC-FL assay measures the oxidative degradation of the fluorescent molecule (FL – fluorescein) after being mixed with a free peroxyl radical generator such as 2,2′-azobis-(2-methylpropionamidine) dihydrochloride (AAPH) in the presence of antioxidant (tested compound). The ORAC-FL test describes the antioxidants’ ability to yield the hydrogen atom and, consequently, it is a HAT-based assay. Trolox was used in all tests as a reference antioxidant: the antioxidant activity of the test compounds was referred to the activity of Trolox. The well-known antioxidant Edaravone was also used for comparison.
The ORAC assay was performed according to the known method, with minor variations and described by us recently.

[11] = 1 h, read-out: Latent Period Prolongation, % 1 h
[12] = 2 h, read-out: Latent Period Prolongation, % 2 h

T1 sequence (P22303 32-617 isoform P22303-2 limits assumed): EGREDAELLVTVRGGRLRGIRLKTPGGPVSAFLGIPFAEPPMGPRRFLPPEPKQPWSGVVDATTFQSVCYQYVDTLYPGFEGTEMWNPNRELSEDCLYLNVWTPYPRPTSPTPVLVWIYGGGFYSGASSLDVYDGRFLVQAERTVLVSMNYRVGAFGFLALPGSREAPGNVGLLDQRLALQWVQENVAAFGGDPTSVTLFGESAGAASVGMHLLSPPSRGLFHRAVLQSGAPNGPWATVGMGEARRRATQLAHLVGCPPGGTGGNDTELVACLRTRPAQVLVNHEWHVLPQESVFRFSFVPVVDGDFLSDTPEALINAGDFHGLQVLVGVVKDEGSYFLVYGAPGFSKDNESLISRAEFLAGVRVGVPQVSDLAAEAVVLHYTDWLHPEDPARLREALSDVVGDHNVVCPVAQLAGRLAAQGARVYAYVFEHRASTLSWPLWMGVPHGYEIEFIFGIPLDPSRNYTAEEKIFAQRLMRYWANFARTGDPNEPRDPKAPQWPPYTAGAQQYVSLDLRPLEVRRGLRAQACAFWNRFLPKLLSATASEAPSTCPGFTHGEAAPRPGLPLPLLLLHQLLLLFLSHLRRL
T2 sequence (P81908 whole entry): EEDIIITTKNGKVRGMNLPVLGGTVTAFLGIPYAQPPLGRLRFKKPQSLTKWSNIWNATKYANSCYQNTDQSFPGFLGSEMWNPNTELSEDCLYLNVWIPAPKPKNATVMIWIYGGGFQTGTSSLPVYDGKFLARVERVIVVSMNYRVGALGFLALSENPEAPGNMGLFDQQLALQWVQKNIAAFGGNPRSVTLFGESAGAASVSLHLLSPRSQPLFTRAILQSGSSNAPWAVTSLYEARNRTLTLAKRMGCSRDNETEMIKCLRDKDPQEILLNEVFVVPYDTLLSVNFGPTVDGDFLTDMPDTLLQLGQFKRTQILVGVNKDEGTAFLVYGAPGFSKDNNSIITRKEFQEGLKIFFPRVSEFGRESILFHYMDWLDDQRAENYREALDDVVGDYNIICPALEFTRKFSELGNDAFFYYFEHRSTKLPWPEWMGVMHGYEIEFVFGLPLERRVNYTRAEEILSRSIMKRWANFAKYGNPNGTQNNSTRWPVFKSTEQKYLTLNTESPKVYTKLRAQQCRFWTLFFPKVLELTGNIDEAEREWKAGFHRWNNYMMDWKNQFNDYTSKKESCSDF

Row | SMILES | MIC [1] [µg/mL] | inhibition at 20 µM [2] [%] | change in vivo at 15 mg/kg (Sprague-Dawley (SD) rats; [11]) [%] | change in vivo at 15 mg/kg (Sprague-Dawley (SD) rats; [12]) [%] | MIC [3] [µg/mL] | MIC [4] [µg/mL] | MIC [5] [µg/mL] | inhibition at 20 µM [6] [%] | MIC [7] [µg/mL] | survival at 14 days [8] [%] | analgesic activity in the hot plate test (Sprague-Dawley (SD) rats; SD rats, 1 and 2 h) | ABTS•+-scavenging activity, TEAC (trolox equivalent antioxidant capacity) [9] | ORAC-FL (TE, antioxidant activity in Trolox equivalents) [10] | IC50 [9] [µM]
1 | O=C1/C(=N\Nc2ccccc2Cl)C(C(F)(F)C(F)(F)F)=NN1c1ccccc1 [6c, (4Z)-4-[2-(2-Chlorophenyl)hydrazinylidene]-5-(pentafluoroethyl)-2-phenyl-2,4-dihydro-3H-pyrazol-3-one] | > 200 | 3.3 ± 0.6 | 75 | 51 | > 200 | > 250 | 200 (≈ 480 µM) | 6.5 ± 1 | > 200 | 100 |  |  |  | 
2 | O=C1/C(=N\Nc2c(Cl)cccc2Cl)C(C(F)(F)C(F)(F)F)=NN1c1ccccc1 [6e, (4Z)-4-[2-(2,6-Dichlorophenyl)hydrazinylidene]-5-(pentafluoroethyl)-2-phenyl-2,4-dihydro-3H-pyrazol-3-one] | > 200 | 6 ± 1 |  |  | > 200 | 62.5 (≈ 139 µM) | > 200 | 6.2 ± 1.2 | 200 (≈ 443 µM) | 100 | inactive |  |  | 
3 | O=C1/C(=N\Nc2ccc(F)cc2)C(C(F)(F)F)=NN1c1ccccc1 [5h, (4Z)-4-[2-(4-Fluorophenyl)hydrazinylidene]-2-phenyl-5-(trifluoromethyl)-2,4-dihydro-3H-pyrazol-3-one] | > 200 | 7 ± 1.2 | 66 | 67 | > 200 | 125 (≈ 357 µM) | > 200 | 3.2 ± 0.6 | > 200 | 100 |  | 0.05 ± 0.004 |  | 
4 | CCOC(=O)c1ccc(N/N=C2\C(=O)N(c3ccccc3)N=C2C(F)(F)F)cc1 [5l, (4Z)-4-[2-(4-Ethoxycarbonyl)hydrazinylidene]-2-phenyl-5-(trifluoromethyl)-2,4-dihydro-3H-pyrazol-3-one] |  | 16.7 ± 1.5 | 68.1 | 107 |  | 31.2 (≈ 77.2 µM) |  | 3.2 ± 0.8 |  | 100 |  |  | i.t.s. | 
5 | COc1ccc(N/N=C2\C(=O)N(c3ccccc3)N=C2C(F)(F)F)cc1 [5g, (4Z)-4-(2-(4-Methoxyphenyl)hydrazinylidene)-2-phenyl-5-(trifluoromethyl)-2,4-dihydro-3H-pyrazol-3-one] |  | 12.3 ± 2.3 |  | 76.9 |  | 0.9 (≈ 2.48 µM) |  |  |  | 100 |  | 0.35 ± 0.03 | 2.20 ± 0.36 | 55.6 ± 2.4
6 | Cc1ccc(N/N=C2\C(=O)N(c3ccc(S(C)(=O)=O)cc3)N=C2C(F)(F)F)cc1 [5q, (4Z)-2-[4-(Methylsulfonyl)phenyl]-4-[2-(4-methylphenyl)hydrazinylidene]-5-(trifluoromethyl)-2,4-dihydro-3H-pyrazol-3-one] |  | 4.3 ± 0.8 | 104 | 110 |  | > 250 |  |  |  | 100 |  | 0.02 ± 0.001 | i.t.s. | 
7 | CCOC(=O)c1ccc(N/N=C2\C(=O)N(c3ccccc3)N=C2C(F)(F)C(F)(F)F)cc1 [6g, (4Z)-4-[2-(4-Ethoxycarbonylphenyl)hydrazinylidene]-5-(pentafluoroethyl)-2-phenyl-2,4-dihydro-3H-pyrazol-3-one] | > 200 | 6.2 ± 0.9 | 67 | 73 | > 200 | 15.6 (≈ 34.3 µM) | > 200 | 4.2 ± 0.8 | > 200 | 100 |  |  |  | 
